Here are results for 15 compounds from US20260053932A1, “COMPOUNDS AND METHODS FOR THE TARGETED DEGRADATION OF ANDROGEN RECEPTOR AND ASSOCIATED METHODS OF USE” (Arvinas Operations, Inc., priority 2020, published 2026).

The first assay concerns androgen receptor (AR) in LNCaP and/or VCaP cells. Description: Androgen Receptor ELISA assay (AR degradation). It counts as cell-based. The following applies: LNCaP and/or VCaP cells; 5 hours incubation; media with R1881; read-out: DC50 Code* (degradation of AR ELISA). The method in brief:
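VCaP cells grown ≥3 days, then treated 5 h with compound in media containing 1 nM R1881 (10× stock). Cells lysed and AR quantified by sandwich ELISA (mouse AR detection Ab, HRP anti-mouse, TMB). DC50 and Dmax derived from AR degradation.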
As for `COc1cc(O[C@H]2C[C@H](N(CC3CCN(c4ncc(C(=O)NC5CC6(C5)CC(Oc5cc(C)c(C#N)c(C)c5)C6)cn4)CC3)C(C)C)C2)cc2c1C(=O)N(C1CCC(=O)NC1=O)C2=O` (stereo partly drawn) [Compound 1, N-(6-(4-cyano-3,5-dimethylphenoxy)spiro [3.3]heptan-2-yl)-2-(4-((((1r,3r)-3-((2-(2,6-dioxopiperidin-3-yl)-7-methoxy-1,3-dioxoisoindolin-5-yl)oxy)cyclobutyl) (isopropyl)amino)methyl)piperidin-1-yl)pyrimidine-5-carboxamide], the 50% degradation concentration (DC50) was 1 to 10 nM.

The assay is the same for the next values; noted with them: degradation of AR ELISA in LNCaP and/or VCaP cells; Table 2C; read-out: DC50 Code*.
With `COCCN(CC1CCN(c2cnc(C(=O)N[C@H]3C(C)(C)[C@H](Oc4cc(C)c(C#N)c(C)c4)C3(C)C)cn2)CC1)[C@H]1C[C@H](Oc2cc3c(cc2OC)C(=O)N(C2CCC(=O)NC2=O)C3=O)C1` (mixture of isomers) [compound 222, rac-N-((1r,3r)-3-(4-cyano-3,5-dimethylphenoxy)-2,2,4,4-tetramethylcyclobutyl)-5-(4-((((1r,3r)-3-((2-(2,6-dioxopiperidin-3-yl)-6-methoxy-1,3-dioxoisoindolin-5-yl)oxy)cyclobutyl)(2-methoxyethyl)amino)methyl)piperidin-1-yl)pyrazine-2-carboxamide], the DC50 was below 1 nM.

Regarding `COCCN(CC1CCN(c2cnc(C(=O)N[C@H]3C(C)(C)[C@H](Oc4cc(C)c(C#N)c(C)c4)C3(C)C)cn2)CC1)[C@H]1C[C@H](Oc2ccc3c(c2)C(=O)N(C2CCC(=O)NC2=O)C3)C1` (mixture of isomers) [compound 223, rac-N-((1r,3r)-3-(4-cyano-3,5-dimethylphenoxy)-2,2,4,4-tetramethylcyclobutyl)-5-(4-((((1r,3r)-3-((2-(2,6-dioxopiperidin-3-yl)-3-oxoisoindolin-5-yl)oxy)cyclobutyl)(2-methoxyethyl)amino)methyl)piperidin-1-yl)pyrazine-2-carboxamide], the DC50 is below 1 nM.

Take `Cc1cc(O[C@H]2C(C)(C)[C@H](NC(=O)c3cnc(N4CCC(CN(C)[C@H]5C[C@H](Oc6ccc7c(c6)C(=O)N(C6CCC(=O)NC6=O)C7=O)C5)CC4)cn3)C2(C)C)cc(C)c1C#N` (mixture of isomers) [compound 224, rac-N-((1r,3r)-3-(4-cyano-3,5-dimethylphenoxy)-2,2,4,4-tetramethylcyclobutyl)-5-(4-((((1r,3r)-3-((2-(2,6-dioxopiperidin-3-yl)-1,3-dioxoisoindolin-5-yl)oxy)cyclobutyl) (methyl)amino)methyl)piperidin-1-yl)pyrazine-2-carboxamide]: the 50% degradation concentration (DC50) is below 1 nM.

In the case of `Cc1cc(O[C@H]2C(C)(C)[C@H](NC(=O)c3ccc(N4CCC(CN(CCO)[C@H]5C[C@H](Oc6ccc7c(c6)C(=O)N(C6CCC(=O)NC6=O)C7=O)C5)CC4)cc3)C2(C)C)cc(C)c1C#N` (mixture of isomers) [compound 225, rac-N-((1r,3r)-3-(4-cyano-3,5-dimethylphenoxy)-2,2,4,4-tetramethylcyclobutyl)-4-(4-((((1r,3r)-3-((2-(2,6-dioxopiperidin-3-yl)-1,3-dioxoisoindolin-5-yl)oxy)cyclobutyl)(2-hydroxyethyl)amino)methyl)piperidin-1-yl)benzamide], the 50% degradation concentration (DC50) is below 1 nM.

As for `COc1cc(O[C@H]2C[C@H](N(CC3CCN(c4cnc(C(=O)N[C@H]5C(C)(C)[C@H](Oc6ccc(C#N)c(Cl)c6)C5(C)C)cn4)CC3)C(C)C)C2)cc2c1CN(C1CCC(=O)NC1=O)C2=O` (mixture of isomers) [compound 226, rac-N-((1r,3r)-3-(3-chloro-4-cyanophenoxy)-2,2,4,4-tetramethylcyclobutyl)-5-(4-((((1r,3r)-3-((2-(2,6-dioxopiperidin-3-yl)-7-methoxy-3-oxoisoindolin-5-yl)oxy)cyclobutyl) (isopropyl)amino)methyl)piperidin-1-yl)pyrazine-2-carboxamide], the 50% degradation concentration (DC50) is below 1 nM.

As to `Cc1cc(O[C@H]2C(C)(C)[C@H](NC(=O)c3ccc(N4CCC5(CC4)CN([C@H]4C[C@H](Oc6ccc7c(c6)C(=O)N(C6CCC(=O)NC6=O)C7=O)C4)CCO5)cc3)C2(C)C)cc(C)c1C#N` (mixture of isomers) [compound 228, rac-N-((1r,3r)-3-(4-cyano-3,5-dimethylphenoxy)-2,2,4,4-tetramethylcyclobutyl)-4-(4-((1r,3r)-3-((2-(2,6-dioxopiperidin-3-yl)-1,3-dioxoisoindolin-5-yl)oxy)cyclobutyl)-1-oxa-4,9-diazaspiro[5.5]undecan-9-yl)benzamide], the half-maximal degradation concentration (DC50) is below 1 nM.

For the compound `Cc1cc(O[C@H]2C(C)(C)[C@H](NC(=O)c3cnc(N4CCC(CN(CCO)[C@H]5C[C@H](Oc6ccc7c(c6)C(=O)N(C6CCC(=O)NC6=O)C7=O)C5)CC4)cn3)C2(C)C)cc(C)c1C#N` (mixture of isomers) [compound 229, rac-N-((1r,3r)-3-(4-cyano-3,5-dimethylphenoxy)-2,2,4,4-tetramethylcyclobutyl)-5-(4-((((1r,3r)-3-((2-(2,6-dioxopiperidin-3-yl)-1,3-dioxoisoindolin-5-yl)oxy)cyclobutyl)(2-hydroxyethyl)amino)methyl)piperidin-1-yl)pyrazine-2-carboxamide], the DC50 was below 1 nM.

Consider `COCCN(CC1CCN(c2nc(C)c(C(=O)N[C@H]3C(C)(C)[C@H](Oc4ccc(C#N)c(OC)c4)C3(C)C)c(C)n2)CC1)[C@H]1C[C@H](Oc2cc(OC)c3c(c2)C(=O)N(C2CCC(=O)NC2=O)C3=O)C1` (mixture of isomers) [compound 232, rac-N-((1r,3r)-3-(4-cyano-3-methoxyphenoxy)-2,2,4,4-tetramethylcyclobutyl)-2-(4-((((1r,3r)-3-((2-(2,6-dioxopiperidin-3-yl)-7-methoxy-1,3-dioxoisoindolin-5-yl)oxy)cyclobutyl)(2-methoxyethyl)amino)methyl)piperidin-1-yl)-4,6-dimethylpyrimidine-5-carboxamide], for which the DC50 was below 1 nM.

As to `Cc1cc(O[C@H]2C(C)(C)[C@H](NC(=O)c3cnc(N4CCC5(CC4)CN([C@H]4C[C@H](Oc6ccc7c(c6)C(=O)N(C6CCC(=O)NC6=O)C7=O)C4)CCO5)cn3)C2(C)C)cc(C)c1C#N` (mixture of isomers) [compound 236, rac-N-((1r,3r)-3-(4-cyano-3,5-dimethylphenoxy)-2,2,4,4-tetramethylcyclobutyl)-5-(4-((1r,3r)-3-((2-(2,6-dioxopiperidin-3-yl)-1,3-dioxoisoindolin-5-yl)oxy)cyclobutyl)-1-oxa-4,9-diazaspiro[5.5]undecan-9-yl)pyrazine-2-carboxamide], the DC50 was below 1 nM.

Consider `CCOc1cc(O[C@H]2C[C@H](N(CC3CCN(c4cnc(C(=O)N[C@H]5C(C)(C)[C@H](Oc6cc(C)c(C#N)c(C)c6)C5(C)C)cn4)CC3)C(C)C)C2)cc2c1C(=O)N(C1CCC(=O)NC1=O)C2=O` (mixture of isomers) [compound 238, rac-N-((1r,3r)-3-(4-cyano-3,5-dimethylphenoxy)-2,2,4,4-tetramethylcyclobutyl)-5-(4-((((1r,3r)-3-((2-(2,6-dioxopiperidin-3-yl)-7-ethoxy-1,3-dioxoisoindolin-5-yl)oxy)cyclobutyl) (isopropyl)amino)methyl)piperidin-1-yl)pyrazine-2-carboxamide], for which the DC50 lay within 1 to 10 nM.

Staying with this assay, now noted: degradation of AR ELISA in LNCaP and/or VCaP cells; read-out: DC50 Code*.
On to `COCCN(CC1CCN(c2nc(C)c(C(=O)N[C@H]3C(C)(C)[C@H](Oc4ccc(C#N)c(OC)c4)C3(C)C)c(C)n2)CC1)[C@H]1C[C@H](Oc2ccc3c(c2)C(=O)N(C2CCC(=O)NC2=O)C3=O)C1` (mixture of isomers) [compound 240, rac-N-((1r,3r)-3-(4-cyano-3-methoxyphenoxy)-2,2,4,4-tetramethylcyclobutyl)-2-(4-((((1r,3r)-3-((2-(2,6-dioxopiperidin-3-yl)-1,3-dioxoisoindolin-5-yl)oxy)cyclobutyl)(2-methoxyethyl)amino)methyl)piperidin-1-yl)-4,6-dimethylpyrimidine-5-carboxamide], for which the 50% degradation concentration (DC50) was 1 to 10 nM.

For the compound `CC1(C)[C@H](NC(=O)c2ccc(N3CCC(CN4CCN(c5ccc6c(c5)C(=O)N(C5(C#N)CCC(=O)NC5=O)C6)CC4)CC3)cc2)C(C)(C)[C@H]1Oc1ccc(C#N)c(Cl)c1` (mixture of isomers) [compound 241, rac-N-((1r,3r)-3-(3-chloro-4-cyanophenoxy)-2,2,4,4-tetramethylcyclobutyl)-4-(4-((4-(2-(3-cyano-2,6-dioxopiperidin-3-yl)-3-oxoisoindolin-5-yl)piperazin-1-yl)methyl)piperidin-1-yl)benzamide], the 50% degradation concentration (DC50) fell in the range of 1 to 10 nM.

In the case of `COc1cc(O[C@H]2C(C)(C)[C@H](NC(=O)c3cnc(N4CCC(CN(CC[S+]([O-])CC5(C)COC5)[C@H]5C[C@H](Oc6ccc7c(c6)C(=O)N(C6CCC(=O)NC6=O)C7=O)C5)CC4)cn3)C2(C)C)ccc1C#N` (mixture of isomers) [compound 243, rac-N-((1r,3r)-3-(4-cyano-3-methoxyphenoxy)-2,2,4,4-tetramethylcyclobutyl)-5-(4-((((1r,3r)-3-((2-(2,6-dioxopiperidin-3-yl)-1,3-dioxoisoindolin-5-yl)oxy)cyclobutyl)(2-(((3-methyloxetan-3-yl)methyl)sulfinyl)ethyl)amino)methyl)piperidin-1-yl)pyrazine-2-carboxamide], the DC50 lay within 1 to 10 nM.

Consider `Cc1cc(O[C@H]2C(C)(C)[C@H](NC(=O)c3cnc(N4CCC(CN(C(C)C)[C@H]5C[C@H](Oc6ccc7c(c6)C(=O)N(C6CCC(=O)N(COP(=O)(O)OCOC(=O)OC(C)C)C6=O)C7=O)C5)CC4)cn3)C2(C)C)cc(C)c1C#N` (mixture of isomers) [compound 247, rac-((((3-(5-((1r,3r)-3-(((1-(5-(((1r,3r)-3-(4-cyano-3,5-dimethylphenoxy)-2,2,4,4-tetramethylcyclobutyl)carbamoyl)pyrazin-2-yl)piperidin-4-yl)methyl)(isopropyl)amino)cyclobutoxy)-1,3-dioxoisoindolin-2-yl)-2,6-dioxopiperidin-1-yl)methoxy)(hydroxy)phosphoryl)oxy)methyl isopropyl carbonate], for which the DC50 is above 100 nM.
